Reference: patent US9732075B2, “Benzimidazole-proline derivatives” (IDORSIA PHARMACEUTICALS LTD, priority 2012, dated 2017)
pIC50: −log10 of the molar value.

Experiments:
[1] = target: human orexin-1 receptor (Homo sapiens (Human), UniProt O43613); test: In vitro assay: intracellular calcium measurements (FLIPR), antagonistic activity; format: cell-based; details: CHO cells expressing human orexin-1 receptor, orexin-A agonist, geometric mean, read-out: IC50 Ox1
Outline: (§1)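 Orexin-A-evoked calcium rise (3 nM final, roughly EC70) was recorded with fluo-4 in recombinant CHO cells, human receptor subtype 1 or 2.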

[2] = target: human orexin-2 receptor (Homo sapiens (Human), UniProt O43614); test: as above; format: cell-based; details: CHO cells expressing human orexin-2 receptor, orexin-A agonist, geometric mean, read-out: IC50 Ox2
human orexin-2 receptor, sequence (O43614 whole entry): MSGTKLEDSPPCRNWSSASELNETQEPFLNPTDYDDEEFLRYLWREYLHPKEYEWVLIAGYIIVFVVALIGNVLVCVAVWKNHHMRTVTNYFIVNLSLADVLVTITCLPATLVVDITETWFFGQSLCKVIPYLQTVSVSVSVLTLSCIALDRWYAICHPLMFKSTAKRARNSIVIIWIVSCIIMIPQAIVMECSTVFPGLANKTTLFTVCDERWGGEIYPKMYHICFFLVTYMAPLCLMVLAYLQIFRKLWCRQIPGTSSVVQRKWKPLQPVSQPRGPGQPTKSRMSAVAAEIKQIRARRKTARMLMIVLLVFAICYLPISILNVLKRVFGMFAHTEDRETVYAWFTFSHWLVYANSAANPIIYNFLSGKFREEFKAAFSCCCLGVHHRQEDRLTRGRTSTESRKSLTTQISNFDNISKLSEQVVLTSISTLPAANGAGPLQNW
Outline: as §1

human orexin-1 receptor, sequence (O43613 whole entry): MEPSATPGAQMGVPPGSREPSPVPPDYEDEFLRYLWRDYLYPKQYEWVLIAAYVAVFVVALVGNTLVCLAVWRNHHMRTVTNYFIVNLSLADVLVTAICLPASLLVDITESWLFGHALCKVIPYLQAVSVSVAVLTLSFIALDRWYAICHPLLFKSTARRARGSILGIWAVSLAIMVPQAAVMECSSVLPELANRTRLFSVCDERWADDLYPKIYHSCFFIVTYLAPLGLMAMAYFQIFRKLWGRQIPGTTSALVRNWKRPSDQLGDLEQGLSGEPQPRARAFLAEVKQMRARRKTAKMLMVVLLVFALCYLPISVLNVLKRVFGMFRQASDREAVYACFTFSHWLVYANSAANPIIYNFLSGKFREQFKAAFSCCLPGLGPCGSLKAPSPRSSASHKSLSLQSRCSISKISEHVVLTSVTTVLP

| SMILES | pIC50 [1] | pIC50 [2] |
| --- | --- | --- |
| Cc1nc(C(=O)N2CC[C@H](C)[C@H]2c2nc3c(C(F)(F)F)cccc3[nH]2)c(-c2ccc(F)c(F)c2)s1 [Ex. 4.154] | 7.59 | 5.32 |
| C=C1C[C@@H](c2nc3cc(C)c(C)cc3[nH]2)N(C(=O)c2c(-n3nccn3)ccc(OC)c2F)C1 [Ex. 6.195] | 7.37 | 7.96 |
| C=C1C[C@@H](c2nc3cccc(C)c3[nH]2)N(C(=O)c2nc(C)sc2-c2ccc(Br)cc2)C1 [Ex. 6.100] | 7.26 | 8.40 |
| C=C1C[C@@H](c2nc3cc(C)c(C)cc3[nH]2)N(C(=O)c2c(-n3nccn3)ccc(C)c2F)C1 [Ex. 6.196] | 7.23 | 7.92 |
| CSc1cccc2nc([C@@H]3CCCN3C(=O)c3nc(C)sc3-c3cc(F)cc(F)c3)[nH]c12 [Ex. 1.71] | 7.02 | 6.79 |
| Cc1ccc(-n2nccn2)c(C(=O)N2CCC[C@@]2(C)c2nc3cc(F)c(Cl)cc3[nH]2)c1 [Ex. 5.12] | 7.82 | 6.87 |
| CO[C@H]1CN(C(=O)c2c(-n3nccn3)ccc(C)c2F)C(C)(c2nc3c(C)c(Cl)ccc3[nH]2)C1 (stereo partly shown) [Ex. 3.47] | 6.65 | 6.33 |
| C[C@@]1(c2nc3cc(C(F)(F)F)ccc3[nH]2)CCCN1C(=O)c1cc(-c2cccc(C#N)c2)ccc1-n1nccn1 [Ex. 5.295] | 8.10 | 6.60 |
| Cc1nc(C(=O)N2CC[C@H](C)[C@H]2c2nc3ccccc3[nH]2)c(-c2cccc(Cl)c2)s1 [Ex. 4.6] | 7.54 | 5.41 |
| Cc1nc(C(=O)N2CCC[C@H]2c2nc3cccc(Cl)c3[nH]2)c(-c2cccc(Cl)c2)s1 [Ex. 1.14] | 7.47 | 7.49 |
| COc1cccc(-c2sc(C)nc2C(=O)N2CC[C@H](C)[C@H]2c2nc3cc(C(F)(F)F)ccc3[nH]2)c1 [Ex. 4.137] | 8.30 | 5.51 |
| Cc1nc(C(=O)N2CCCC2c2nc3c(C(F)(F)F)cccc3[nH]2)c(-c2ccccc2)s1 (stereo not shown) [Ex. 1.129] | 7.03 | 6.91 |
| C=C1C[C@@H](c2nc3cccc(C)c3[nH]2)N(C(=O)c2cc(Cl)ccc2-n2nccn2)C1 [Ex. 6.102] | 6.44 | 7.49 |
| Cc1ccc(-c2ccc(C)cc2C(=O)N2CCC[C@@]2(C)c2nc3cc(C(F)(F)F)c(Cl)cc3[nH]2)cc1 [Ex. 5.154] | 7.23 | 7.21 |
| COc1ccccc1-c1sc(C)nc1C(=O)N1CC[C@H](C)[C@H]1c1nc2cc(C(F)(F)F)ccc2[nH]1 [Ex. 4.147] | 7.89 | 5.02 |
| Cc1nc(C(=O)N2CCCC2c2nc3cc(Cl)c(C)cc3[nH]2)c(-c2cccc(Cl)c2)s1 (stereo not shown) [Ex. 1.101] | 7.68 | 7.30 |
| Cc1cc2[nH]c([C@@H]3[C@@H](C)CCN3C(=O)c3cc(F)ccc3-c3ncccn3)nc2cc1Cl [Ex. 4.131] | 7.64 | 6.30 |
| COc1cccc(C#Cc2ccccc2C(=O)N2CC[C@H](C)[C@H]2c2nc3c(C)c(Cl)ccc3[nH]2)c1 [Ex. 4.134] | 9.00 | 7.07 |
| Cc1nc(C(=O)N2CC[C@H](C)[C@H]2c2nc3c(C)c(C)ccc3[nH]2)c(-c2cccc(Cl)c2)s1 [Ex. 4.24] | 8.70 | 6.44 |
| COc1ccc2nc([C@@H]3CCCN3C(=O)c3ccc(C)cc3-n3nccn3)[nH]c2c1 [Ex. 1.160] | 6.61 | 8.30 |

| SMILES | pIC50 [1] | pIC50 [2] |
| --- | --- | --- |
| CCn1c([C@]2(C)CCCN2C(=O)c2nc(C)sc2-c2cccc(Cl)c2)nc2c(C)cccc21 [Ex. 7.6] | 8.30 | 8.22 |
| COc1ccc(-c2ccccc2C(=O)N2CCC[C@@]2(C)c2nc3c(C)c(C)ccc3[nH]2)cc1 [Ex. 5.119] | 7.52 | 7.54 |
| COc1cccc(-c2nc(C(=O)N3CCC[C@@]3(C)c3nc4ccc(Cl)c(C)c4[nH]3)c(-c3ccc(F)cc3)s2)c1 [Ex. 5.231] | 7.82 | 6.87 |
| Cc1nc(C(=O)N2CC[C@H](C)[C@H]2c2nc3c(C)cc(Cl)cc3[nH]2)c(-c2cc(F)cc(F)c2)s1 [Ex. 4.98] | 8.40 | 5.89 |
| COc1cccc(-c2ccc(C)cc2C(=O)N2CCC[C@@]2(C)c2nc3cc(C)c(C)cc3n2CCF)c1 [Ex. 7.51] | 7.72 | 7.57 |
| COc1ccc2[nH]c([C@]3(C)CCCN3C(=O)c3cc(C)ccc3-n3nccn3)nc2c1 [Ex. 5.32] | 7.05 | 7.34 |
| CO[C@@H]1C[C@@H](c2nc3ccc(Cl)c(C)c3[nH]2)N(C(=O)c2nc(C)sc2-c2cccc(C)c2)C1 [Ex. 3.32] | 9.05 | 8.30 |
| C=C1CC(c2nc3cc(SC)ccc3[nH]2)N(C(=O)c2nc(C3CC3)sc2-c2cccc(C)c2)C1 (stereo not shown) [Ex. 6.88] | 7.70 | 7.82 |
| CSc1cccc2nc([C@@H]3CCCN3C(=O)c3nccnc3-c3cccc(C(F)(F)F)c3)[nH]c12 [Ex. 1.73] | 6.87 | 6.55 |
| C=C1C[C@@H](c2nc3cc(Cl)c(C(F)(F)F)cc3[nH]2)N(C(=O)c2cc(OC)c(OC)cc2-n2nccn2)C1 [Ex. 6.186] | 7.57 | 8.22 |
| COc1ccc(-c2sc(C)nc2C(=O)N2CC[C@H](C)[C@H]2c2nc3cc(OC)c(OC)cc3[nH]2)cn1 [Ex. 4.53] | 6.95 | 5.35 |
| COc1ccc(-n2nccn2)c(C(=O)N2CCC[C@H]2c2nc3cccc(SC)c3[nH]2)c1 [Ex. 1.166] | 7.35 | 8.40 |
| Cc1ccc(C(=O)N2CCC[C@@]2(C)c2nc3cc(C)c(C)cc3[nH]2)c(-n2nccn2)c1 [Ex. 5.56] | 7.92 | 7.82 |
| Cc1ccc(-n2nccn2)c(C(=O)N2CC[C@H](C)[C@H]2c2nc3cc(C(F)(F)F)ccc3[nH]2)c1 [Ex. 4.29] | 7.52 | 6.45 |
| C=C1C[C@@H](c2nc3cccc(C)c3[nH]2)N(C(=O)c2nc(C)sc2-c2ccc(Cl)c(Cl)c2)C1 [Ex. 6.113] | 8.30 | 9.00 |
| COc1cc2nc([C@@H]3[C@@H](C)CCN3C(=O)c3cc(C)ccc3-n3cccn3)[nH]c2cc1OC [Ex. 4.57] | 7.23 | 6.60 |
| Cc1ccc(-c2cccnc2)c(C(=O)N2CC[C@H](C)[C@H]2c2nc3c(C)c(Cl)ccc3[nH]2)c1F [Ex. 4.173] | 7.89 | 5.20 |
| Cc1ccc(-n2cccn2)c(C(=O)N2CCC[C@@]2(C)c2nc3c(C)c(Cl)ccc3[nH]2)c1 [Ex. 5.43] | 8.52 | 7.85 |
| Cc1cccc(-c2ccc(C)cc2C(=O)N2CCC[C@@]2(C)c2nc3cc(C)c(C)cc3n2CCF)c1 [Ex. 7.28] | 7.85 | 7.72 |
| C=C1C[C@@H](c2nc3cc(OC)ccc3[nH]2)N(C(=O)c2cc(C)ccc2-n2nccn2)C1 [Ex. 6.12] | 6.50 | 8.22 |

| SMILES | pIC50 [1] | pIC50 [2] |
| --- | --- | --- |
| COc1cc2nc([C@]3(C)CCCN3C(=O)c3nc(C)ccc3-n3nccn3)[nH]c2cc1OC [Ex. 5.85] | 6.50 | 6.94 |
| Cc1ccc(-c2ccccc2F)c(C(=O)N2CCC[C@@]2(C)c2nc3cc(C)c(C)cc3n2CC2CC2)c1 [Ex. 7.50] | 7.18 | 6.77 |
| C=C1C[C@@H](c2nc3cc(Cl)c(C(F)(F)F)cc3[nH]2)N(C(=O)c2c(F)cccc2-n2nccn2)C1 [Ex. 6.175] | 7.11 | 7.72 |
| COc1cc2nc([C@]3(C)CCCN3C(=O)c3ccccc3-c3cccc(C)c3)[nH]c2cc1OC [Ex. 5.87] | 6.69 | 6.80 |
| C=C1C[C@@H](c2nc3cccc(C)c3[nH]2)N(C(=O)c2nc(C)sc2-c2cccc(C(F)(F)F)c2)C1 [Ex. 6.112] | 7.82 | 9.15 |
| Cc1c(Br)cc2[nH]c([C@]3(C)CCCN3C(=O)c3ccccc3-c3ccccc3)nc2c1C [Ex. 5.269] | 7.82 | 7.66 |
| Cc1nc(C(=O)N2CC(F)(F)C[C@H]2c2nc3c(C)c(Cl)ccc3[nH]2)c(-c2ccccc2)s1 [Ex. 2.8] | 7.15 | 7.29 |
| CSc1cccc2nc([C@@H]3CCCN3C(=O)c3ccc(C)cc3-n3nccn3)[nH]c12 [Ex. 1.169] | 7.43 | 8.52 |
| Cc1cccc(-c2ccccc2C(=O)N2CCC[C@@]2(C)c2nc3cc(C)c(C)cc3[nH]2)c1 [Ex. 5.106] | 7.60 | 7.43 |
| C=C1C[C@@H](c2nc3ccc(Cl)c(C)c3[nH]2)N(C(=O)c2cc(C(F)(F)F)ccc2-n2nccn2)C1 [Ex. 6.129] | 6.67 | 7.41 |
| Cc1ccc(-c2sc(N(C)C)nc2C(=O)N2CC[C@H](C)[C@H]2c2nc3c(Cl)cccc3[nH]2)cc1C [Ex. 4.128] | 9.00 | 6.41 |
| CO[C@@H]1C[C@@H](c2nc3c(C)cccc3[nH]2)N(C(=O)c2nc(C)sc2-c2ccccc2)C1 [Ex. 3.4] | 7.36 | 7.85 |
| Cc1nc(C(=O)N2C[C@H](F)C[C@H]2c2nc3c(C)cccc3[nH]2)c(-c2ccccc2)s1 [Ex. 2.3] | 7.17 | 7.21 |
| CSc1ccc2nc([C@@H]3CCCN3C(=O)c3nc(C)sc3-c3ccc(Br)cc3)[nH]c2c1 [Ex. 1.34] | 6.91 | 7.25 |
| Cc1nc(C(=O)N2CC[C@H](C)[C@H]2c2nc3cc(F)c(F)cc3[nH]2)c(-c2cccc(Cl)c2)s1 [Ex. 4.12] | 7.64 | 5.31 |
| CSc1cccc2nc([C@@H]3CCCN3C(=O)c3nc(C)sc3-c3ccc(C)cc3)[nH]c12 [Ex. 1.66] | 7.70 | 7.33 |
| C=C1C[C@@H](c2nc3c(C)c(Cl)ccc3[nH]2)N(C(=O)c2nc(C)sc2-c2cccc(Cl)c2)C1 [Ex. 6.45] | 9.00 | 9.00 |
| CSc1ccc2[nH]c([C@@H]3CCCN3C(=O)c3nc(C)ccc3-n3cccn3)nc2c1 [Ex. 1.178] | 5.57 | 7.02 |
| COc1cc(C(=O)N2CCC[C@@]2(C)c2nc3cc(C(F)(F)F)ccc3[nH]2)c(-n2nccn2)cc1OC [Ex. 5.174] | 7.23 | 6.88 |
